Experiments:
Format in all cases: in vivo, mouse
G1H-G93A transgenic mice [1] = assay: Exercise tolerance test: footprint test; settings: 5 mg/kg oral daily from 80th day (before onset), score 0-4
Protocol: (§1) The following five kinds of exercise tolerance tests were conducted every fifth day from the 70th day after birth to evaluate the ability to exercise in the respective exercise tolerance tests. That is, the days for the exercise tolerance tests were every fifth days, such as the 70th day, 75th day, 80th day, 85th day and so on, after birth. The exercise tolerance tests were conducted throughout the survival period, and the post-mortem evaluation was based on the definitions of the following five kinds of exercise tolerance tests.
Both hindlimbs of a mouse are dipped in a black ink bottle, and then the mouse is allowed to walk on white paper. The footprints of the two hindlimbs of the mouse after the walking are analyzed. […] The post-mortem evaluation of the footprint test is defined as score 4.

G1H-G93A transgenic mice [2] = assay: Exercise tolerance test: extension reflex test; settings: for Extension reflex test score: 5 mg/kg oral daily from 80th day (before onset), score 0-2
Protocol: as §1
As for extension reflex, extension of the hindlimbs is normally observed when a mouse is suspended in the air by its tail.
The evaluation of extension reflex test of the mice was performed based on the following criteria: Score 0=Extension reflex is recognized in both of the hindlimbs; Score 1=Extension reflex is recognized only one hindlimb; and Score 2=Extension reflex is not recognized in both of the hindlimbs. The post-mortem evaluation of the extension reflex test is defined as score 2.

G1H-G93A transgenic mice [3] = assay: Histopathological study: number of spinal cord anterior horn cells; settings: end stage, 5 mg/kg oral daily from 80th day after birth (before onset)
Protocol: The mouse supplied to the experiment is anesthetized by intraperitoneal injection of pentobarbital sodium in an amount of 1 mL per kg of the mouse body weight. After confirming that the mouse is completely under anesthesia, laparotomy and thoracotomy are performed, and blood is completely removed from the visceral organs of the whole body by perfusion of physiological saline at 37° C. via the left ventricle and aorta. The complete removal of blood from the visceral organs of the whole body is carried out by confirming complete removal of the blood of the aorta in the thoracic part and abdominal part, mesenteric arteries, liver, kidneys, and small arteries on the surfaces of the stomach, small intestine and large intestine under direct visual inspection. Subsequently, perfusion of 50 mL of physiological saline at 37° C. is performed. Immediately thereafter, the perfusion is performed with a fixative (4% paraformaldehyde supplemented with 0.1 M cacodylate buffer, pH 7.4). The spinal cord is removed and re-fixed with the same fixative for 18 hours. After the fixation of spinal cord tissue, each spinal cord segments is cut out to examine the spinal cord tissue. For the detailed analyses of spinal cord tissues, two segments of the cervical spinal cord (upper and lower cervical segments), three segments of the thoracic spinal cord (upper, middle, and lower thoracic segments), and two segments of lumbar spinal cord (upper and lower lumbar segments) were cut out to provide seven segments in total. Each spinal cord segments are respectively embedded in paraffin to produce paraffin blocks, and then cut into paraffin sections having a thickness of 5 μm using a microtome. The paraffin sections are subjected to hematoxylin and eosin (HE) staining.
For a quantitative analysis, serial 25 paraffin sections having a thickness of 5 μm were produced in series from the respective segment paraffin blocks of the spinal cord, and the 1st section, 7th section, 13th section, 19th section and 25th section were selected and subjected to HE staining. Specifically, paraffin sections were selected such that one paraffin section was taken at a […], and 5 HE preparations were produced from a single spinal cord segments. Therefore, 10 HE preparations from two areas for the entire cervical spinal cord, 15 HE preparations from three areas for the entire thoracic spinal cord, and 10 HE preparations from two areas for the entire lumbar spinal cord, were produced.
In order to calculate the number of motor neurons in the anterior horn, all of the HE stained sections were observed under a light microscope (BX41: Olympus Corp., Tokyo, Japan) equipped with a 3CCD digital color camera system for the microscope (FX380: Olympus Corp., Tokyo, Japan). Subsequently, photographs of the anterior horn region (corresponding to VII, VIII and IX Rexed areas) in the HE stained sections of the respective myelomere tissues of the spinal cord were taken, and the images were analyzed using an image analysis-filing software (FLVFS-LS Ver. 1.12: Olympus Corp., Tokyo, Japan). In regard to the definition of the motor neuron in the anterior horn of spinal cord (spinal cord anterior horn cells), cells in the HE stained sections, which have a nucleus carrying a definite nucleolus and contain a cell body having a diameter of 25 μm or more, were selected as the spinal cord anterior horn cells (Klivenyi P, et al., Nature Med 1999; 5:347-351, Kong J & Xu Z, J Neurosci 1998; 18:3241-3250, and Stephens B, et al., Neuropathol Appl Neurobiol 2001; 27:352-361). Based on this definition, the number of spinal cord anterior horn cells was counted for each of the HE stained sections. The respective numbers of spinal cord anterior horn cells in the cervical spinal cord, thoracic spinal cord and lumbar spinal cord of one mouse was calculated from the total number of spinal cord anterior horn cells in five HE stained sections. […]

[4] = per five HE sections, average±SD

## N#Cc1cc(-c2n[nH]c(-c3ccncc3)n2)ccn1 [compound (b), 4-(5-pyridin-4-yl-1H-[1,2,4]triazol-3-yl)pyridine-2-carbonitrile]
G1H-G93A transgenic mice [1]; 70th day after birth
  Footprint test score: 0.0±0.0
G1H-G93A transgenic mice [1]; 75th day after birth
  Footprint test score: 0.0±0.0
G1H-G93A transgenic mice [1]; 80th day after birth
  Footprint test score: 0.0±0.0
G1H-G93A transgenic mice [1]; 85th day after birth
  Footprint test score: 0.0±0.0
G1H-G93A transgenic mice [1]; 90th day after birth
  Footprint test score: 0.0±0.0
G1H-G93A transgenic mice [1]; 95th day after birth
  Footprint test score: 0.0±0.0
G1H-G93A transgenic mice [1]; 100th day after birth
  Footprint test score: 0.0±0.0
G1H-G93A transgenic mice [1]; 105th day after birth
  Footprint test score: 0.0±0.0
G1H-G93A transgenic mice [1]; 110th day after birth
  Footprint test score: 0.1±0.3
G1H-G93A transgenic mice [1]; 115th day after birth
  Footprint test score: 0.6±0.7
G1H-G93A transgenic mice [1]; 120th day after birth
  Footprint test score: 1.8±1.0
G1H-G93A transgenic mice [1]; 125th day after birth
  Footprint test score: 2.8±0.4
G1H-G93A transgenic mice [1]; 130th day after birth
  Footprint test score: 3.4±0.5
G1H-G93A transgenic mice [1]; 135th day after birth
  Footprint test score: 3.9±0.3
G1H-G93A transgenic mice [1]; 140th day after birth
  Footprint test score: 4.0±0.0
G1H-G93A transgenic mice [2]; 70th day after birth, 5 mg/kg
  Extension reflex test score: 0.0±0.0
G1H-G93A transgenic mice [2]; 75th day after birth, 5 mg/kg
  Extension reflex test score: 0.0±0.0
G1H-G93A transgenic mice [2]; 80th day after birth, 5 mg/kg
  Extension reflex test score: 0.0±0.0
G1H-G93A transgenic mice [2]; 85th day after birth, 5 mg/kg
  Extension reflex test score: 0.0±0.0
G1H-G93A transgenic mice [2]; 90th day after birth, 5 mg/kg
  Extension reflex test score: 0.0±0.0
G1H-G93A transgenic mice [2]; 95th day after birth, 5 mg/kg
  Extension reflex test score: 0.0±0.0
G1H-G93A transgenic mice [2]; 100th day after birth, 5 mg/kg
  Extension reflex test score: 0.0±0.0
G1H-G93A transgenic mice [2]; 105th day after birth, 5 mg/kg
  Extension reflex test score: 0.0±0.0
G1H-G93A transgenic mice [2]; 105th, 110th, 115th and 120th day, 5 mg/kg oral daily from 80th day after birth, Mann-Whitney's U test
  effect in extension reflex test as compared to placebo group: significant effects
G1H-G93A transgenic mice [2]; 110th day after birth, 5 mg/kg
  Extension reflex test score: 0.1±0.3
G1H-G93A transgenic mice [2]; 115th day after birth, 5 mg/kg
  Extension reflex test score: 0.5±0.5
G1H-G93A transgenic mice [2]; 120th day after birth, 5 mg/kg
  Extension reflex test score: 1.3±0.5
G1H-G93A transgenic mice [2]; 125th day after birth, 5 mg/kg
  Extension reflex test score: 1.8±0.4
G1H-G93A transgenic mice [2]; 130th day after birth
  Extension reflex test score: 2.0 ± 0.0
G1H-G93A transgenic mice [2]; 135th day after birth
  Extension reflex test score: 2.0 ± 0.0
G1H-G93A transgenic mice [2]; 140th day after birth
  Extension reflex test score: 2.0 ± 0.0
G1H-G93A transgenic mice [2]; from the 130th day to 140th day after birth
  Extension reflex test score: 2.0±0.0
G1H-G93A transgenic mice [3]; P>0.05, Mann-Whitney's U test
  difference to placebo group in number of spinal cord anterior horn cells (cervical, thoracic or lumbar segment): no significant difference
G1H-G93A transgenic mice [3]; [4]
  number of spinal cord anterior horn cells in the cervical segment: 4.6±2.0
  number of spinal cord anterior horn cells in the lumbar segment: 5.3±2.7
  number of spinal cord anterior horn cells in the thoracic segment: 1.9±1.7

Source: US8318792B2, “Therapeutic agent for amyotrophic lateral sclerosis” (Nippon Medical School Foundation, priority 2006, dated 2012)
